Experimental data as given in the SangsterLogP compilation.

Assay: method code SF-AS, from DOI: 10.1248/cpb.22.2064
Settings: pH 7.4

logD | SMILES
1.44 | Cc1c(N2CCOCC2)c(=O)n(-c2ccccc2)c(=O)n1-c1ccccc1
2.68 | Cc1c(N2CCCC2)c(=O)n(C)c(=O)n1-c1ccccc1
3.24 | Cc1c(N2CCCCC2)c(=O)n(-c2ccccc2)c(=O)n1-c1ccccc1
3.21 | Cc1c(N2CCCCC2)c(=O)n(C)c(=O)n1-c1ccccc1
2.37 | Cc1c(N2CCOCC2)c(=O)n(-c2ccccc2)c(=O)n1C1CCCCC1

The remaining lines, values behind:

SMILES | logD
Cc1c(NCC(C)C)c(=O)n(-c2ccccc2)c(=O)n1-c1ccccc1 | 2.4
Cc1c(N2CCCCC2)c(=O)n(C)c(=O)n1C1CCCCC1 | 3.68
Cc1c(N(C)C)c(=O)n(C2CCCCC2)c(=O)n1C | 3.02
Cc1c(N(C)C)c(=O)[nH]c(=O)n1C1CCCCC1 | 2.53
Cc1c(N(C)C)c(=O)n(C)c(=O)n1C1CCCCC1 | 2.94
Cc1c(N(C)C)c(=O)n(Cc2ccccc2)c(=O)n1C | 2.47
Cc1c(N(C)C)c(=O)n(C2CCCC2)c(=O)n1C | 2.65
Cc1c(NCC(C)C)c(=O)n(-c2ccccc2)c(=O)n1C1CCCCC1 | 3.27
Cc1c(N2CCCC2)c(=O)n(C)c(=O)n1C1CCCCC1 | 3.55
